Converted amounts (≈) assume the structure as drawn. Read-outs that look alike come from different tables or passages of the source.
Experiments:
[1] = tested on: Pseudomonas aeruginosa ATCC 27853, CCM 3955; test: Antibacterial microdilution broth method (EUCAST); format: cell-based; details: read-out: MIC PA
[2] = tested on: Aspergillus fumigatus ATCC 204305; test: Antifungal microdilution broth method (EUCAST); format: cell-based; details: read-out: MIC AF
[3] = tested on: Candida tropicalis ATCC 750, CCM 8264; test: Antifungal microdilution broth method (EUCAST); format: cell-based; details: read-out: MIC CT
HepG2 cells = test: HepG2 cytotoxicity, CellTiter 96 (MTS) assay; format: cell-based, human; details: for IC50: Homo sapiens, read-out: HepG2 IC50; for SI, selectivity index: IC50 (HepG2)/MIC against Mtb H37Ra (in µM)
[4] = tested on: Escherichia coli ATCC 25922, CCM 3954; test: Antibacterial microdilution broth method (EUCAST); format: cell-based; details: read-out: MIC EC
[5] = tested on: Trichophyton interdigitale ATCC 9533, CCM 8377; test: Antifungal microdilution broth method (EUCAST); format: cell-based; details: read-out: MIC TI
[6] = tested on: Enterococcus faecalis ATCC 29212, CCM 4224; test: Antibacterial microdilution broth method (EUCAST); format: cell-based; details: read-out: MIC EF
[7] = tested on: Aspergillus flavus CCM 8363; test: Antifungal microdilution broth method (EUCAST); format: cell-based; details: read-out: MIC AFla
[8] = tested on: Candida krusei ATCC 6258, CCM 8271; test: Antifungal microdilution broth method (EUCAST); format: cell-based; details: Pichia kudriavzevii
[9] = tested on: M. kansasii CNCTC My 235/80 (ATCC 12478); test: 96 well plate microdilution broth method with Alamar Blue; format: cell-based; details: Mycobacterium kansasii
[10] = tested on: Acinetobacter baumanii ATCC 19606, DSM 30007; test: Antibacterial microdilution broth method (EUCAST); format: cell-based; details: Acinetobacter baumannii
[11] = tested on: Staphylococcus aureus spp.aureus ATCC 29213, CCM 4223; test: Antibacterial microdilution broth method (EUCAST); format: cell-based; details: read-out: MIC SA
[12] = tested on: Candida parapsilosis ATCC 22019, CCM 8260; test: Antifungal microdilution broth method (EUCAST); format: cell-based; details: Lodderomyces parapsilosis
[13] = tested on: Mycobacterium smegmatis DSM 43465 (ATCC 607); test: Microdilution broth, modified Microplate Alamar Blue Assay, whole cell growth inhibition; format: cell-based; details: Mycolicibacterium smegmatis, read-out: MIC Mycobacterium smegmatis
[14] = tested on: Mycobacterium aurum DSM 43999 (ATCC 23366); test: as above; format: cell-based; details: Mycolicibacterium aurum, read-out: MIC Mycobacterium aurum
[15] = tested on: M. avium ssp. avium CNCTC My 80/72 (ATCC 15769); test: 96 well plate microdilution broth method with Alamar Blue; format: cell-based; details: Mycobacterium avium
[16] = tested on: Candida albicans ATCC 24433, CCM 8320; test: Antifungal microdilution broth method (EUCAST); format: cell-based
[17] = tested on: Absidia corymbifera CCM 8077 (Lichtheimia corymbifera); test: Antifungal microdilution broth method (EUCAST); format: cell-based; details: read-out: MIC AC
[18] = tested on: Staphylococcus epidermidis ATCC 12228, CCM 4418; test: Antibacterial microdilution broth method (EUCAST); format: cell-based; details: read-out: MIC SE
[19] = tested on: Mycobacterium tuberculosis H37Ra ITM-M006710 (ATCC 9431); test: Microdilution broth, modified Microplate Alamar Blue Assay, whole cell growth inhibition; format: cell-based; details: Mycobacterium tuberculosis, read-out: MIC Mtb H37Ra
[20] = tested on: Staphylococcus aureus methicillin resistant ATCC 43300, CCM 4750; test: microbe, parasite or virus in culture; format: cell-based; details: ATCC 43300 / CCM 4750 / MRSA, read-out: MIC MRSA
[21] = tested on: Klebsiella pneumoniae ATCC 10031, CCM 4415; test: Antibacterial microdilution broth method (EUCAST)
[22] = format: physicochemical
Protocol: As a complementary test, final compounds were tested for in vitro activity against selected fungal and bacterial pathogens of clinical importance. The microdilution broth method was performed according to The European Committee on Antimicrobial Susceptibility Testing (EUCAST) instructions with slight modifications. The minimum inhibitory concentration was expressed in µM. Not all compounds were evaluated due to the fact of a problem with solubility which occurred for 18 samples. […] See Supplementary Materials for the list of tested strains, methodology, and full results.

[23] = in vitro, Middlebrook 7H9 broth, resazurin
[24] = HepG2, 24 h incubation, > means higher concentration not reproducible due to precipitation

Structure (SMILES): CCCCCNc1cnc(C(=O)Nc2ccc(O)cc2)cn1 [Compound 3c, N-(4-hydroxyphenyl)-5-(pentylamino)pyrazine-2-carboxamide]
- MIC ([1]; 72 h): > 125 µM
- MIC ([1]; 120 h): > 125 µM
- MIC ([2]; ATCC204305, 24 h): > 125 µM
- MIC ([2]; ATCC204305, 48 h): > 125 µM
- MIC ([3]; 24 h): > 125 µM
- MIC ([3]; 48 h): > 125 µM
- HepG2 IC50 (HepG2 cells; 24 h incubation, > means higher concentration not reproducible due to precipitation): above the tested range of concentrations
- IC50 (HepG2 cells; HepG2, 24 h): > 500 µM
- SI, selectivity index (HepG2 cells): >38.4
- MIC ([4]; 24 h): > 125 µM
- MIC ([4]; 48 h): > 125 µM
- MIC ([5]; 72 h): > 125 µM
- MIC ([5]; 120 h): > 125 µM
- MIC ([6]; 24 h): > 125 µM
- MIC ([6]; 48 h): > 125 µM
- MIC ([7]; CCM8363, 24 h): > 125 µM
- MIC ([7]; CCM8363, 48 h): > 125 µM
- MIC ([8]; 24 h, read-out: MIC CK): > 125 µM
- MIC ([8]; 48 h, read-out: MIC CK): > 125 µM
- MIC ([8]; read-out: MIC CK (Candida krusei)): > 125 µM
- MIC ([9]; ATCC12478, pH 6.6, read-out: MIC Mycobacterium kansasii): 12.5 mg/L (≈ 41.6 µM)
- MIC ([10]; 24h): > 125 µM
- MIC ([10]; 48h): > 125 µM
- MIC ([11]; 24 h): > 125 µM
- MIC ([11]; 48 h): > 125 µM
- MIC ([12]; 24 h, read-out: MIC CP): > 125 µM
- MIC ([12]; 48 h, read-out: MIC CP): > 125 µM
- MIC ([12]; read-out: MIC CP (Candida parapsilosis)): > 125 µM
- melting point: 162.6 to 166.8 °C
- MIC [13]: 31.2 mg/L (≈ 104 µM)
- MIC [14]: ≥ 500 mg/L
- MIC ([15]; ATCC15769, pH 6.6, read-out: MIC Mycobacterium avium): 50 mg/L (≈ 166 µM)
- MIC ([16]; 24 h, read-out: MIC CA): 62.5 µM (≈ 18.8 µg/mL)
- MIC ([16]; 48 h, read-out: MIC CA): 62.5 µM (≈ 18.8 µg/mL)
- MIC ([16]; read-out: MIC CA (Candida albicans)): 62.5 µM (≈ 18.8 µg/mL)
- MIC ([17]; CCM8077, 24 h): > 125 µM
- MIC ([17]; CCM8077, 48 h): > 125 µM
- MIC ([18]; 24 h): > 125 µM
- MIC ([18]; 48 h): > 125 µM
- MIC ([19]; MIC converted to µM): 13 µM
- MIC [19, 23]: 3.91 mg/L
- MIC ([20]; 24 h): > 125 µM
- MIC ([20]; 48 h): > 125 µM
- MIC KP ([21]; 24h): > 125 µM
- MIC KP ([21]; 48h): > 125 µM

Structure (SMILES): CCCNc1cnc(C(=O)Nc2ccc(C)cc2)cn1 [Compound 4a, 5-(Propylamino)-N-(p-tolyl)pyrazine-2-carboxamide]
- IC50 (HepG2 cells; [24]): > 100 µM
- SI, selectivity index (HepG2 cells): >1.73
- Solubility problem in antibacterial/antifungal testing [22]: precipitated in both growth media
- melting point: 168 to 169 °C
- MIC [13, 23]: 31.2 mg/L (≈ 116 µM)
- MIC [14, 23]: ≥ 500 mg/L
- MIC [19, 23]: 15.6 mg/L

Structure (SMILES): CCCCNc1cnc(C(=O)Nc2ccc(CC)cc2)cn1 [Compound 5b, 5-(Butylamino)pyrazine-N-(4-ethylphenyl)-2-carboxamide]
- IC50 (HepG2 cells; [24]): > 50 µM
- Solubility problem in antibacterial/antifungal testing [22]: precipitated in both growth media
- melting point: 133.8 to 134.8 °C
- MIC [13, 23]: ≥ 500 mg/L
- MIC [14, 23]: ≥ 500 mg/L
- MIC [19, 23]: ≥ 500 mg/L

Structure (SMILES): CCCCCNc1cnc(C(=O)Nc2ccc(CC)cc2)cn1 [Compound 5c, N-(4-ethylphenyl)-5-(pentylamino)pyrazine-2-carboxamide]
- IC50 (HepG2 cells; [24]): > 25 µM
- Solubility problem in antibacterial/antifungal testing [22]: precipitated in both growth media
- melting point: 136.1 to 137.1 °C
- MIC [13, 23]: ≥ 500 mg/L
- MIC [14, 23]: ≥ 500 mg/L
- MIC [19, 23]: ≥ 500 mg/L

Structure (SMILES): CCCCCCCCNc1cnc(C(=O)Nc2ccc(CC)cc2)cn1 [Compound 5f, N-(4-ethylphenyl)-5-(octylamino)pyrazine-2-carboxamide]
- IC50 (HepG2 cells; [24]): > 10 µM
- Solubility problem in antibacterial/antifungal testing [22]: precipitated in both growth media
- melting point: 131 to 132 °C
- MIC [13, 23]: ≥ 250 mg/L
- MIC [14, 23]: ≥ 250 mg/L
- MIC [19, 23]: ≥ 250 mg/L

Structure (SMILES): CCCCCCCCNc1cnc(C(=O)Nc2ccc(Cl)cc2O)cn1 [Compound 6f, N-(4-chloro-2-hydroxyphenyl)-5-(octylamino)pyrazine-2-carboxamide]
- IC50 (HepG2 cells; [24]): > 50 µM
- Solubility problem in antibacterial/antifungal testing [22]: did not dissolve in DMSO
- melting point: 196.9 to 197.9 °C
- MIC [13, 23]: 7.81 mg/L (≈ 20.7 µM)
- MIC [14, 23]: ≥ 500 mg/L
- MIC [19, 23]: ≥ 500 mg/L

Structure (SMILES): CCCNc1cnc(C(=O)Nc2cc(Cl)ccc2O)cn1 [Compound 7a, N-(5-chloro-2-hydroxyphenyl)-5-(propylamino)pyrazine-2-carboxamide]
- IC50 (HepG2 cells; [24]): > 25 µM
- Solubility problem in antibacterial/antifungal testing [22]: did not dissolve in DMSO
- melting point: 254 to 259 °C
- MIC [13, 23]: < 3.91 mg/L
- MIC [14, 23]: 250 mg/L (≈ 815 µM)
- MIC [19, 23]: ≥ 500 mg/L

Structure (SMILES): CCCCNc1cnc(C(=O)Nc2cc(Cl)ccc2O)cn1 [Compound 7b, 5-(Butylamino)pyrazine-N-(5-chloro-2-hydroxyphenyl)-2-carboxamide]
- IC50 (HepG2 cells; [24]): > 25 µM
- Solubility problem in antibacterial/antifungal testing [22]: did not dissolve in DMSO
- melting point: 257.9 to 262.1 °C
- MIC [13, 23]: 3.91 mg/L (≈ 12.2 µM)
- MIC [14, 23]: ≥ 500 mg/L
- MIC [19, 23]: ≥ 500 mg/L

Structure (SMILES): CCCCCNc1cnc(C(=O)Nc2cc(Cl)ccc2O)cn1 [Compound 7c, N-(5-chloro-2-hydroxyphenyl)-5-(pentylamino)pyrazine-2-carboxamide]
- IC50 (HepG2 cells; [24]): > 25 µM
- Solubility problem in antibacterial/antifungal testing [22]: did not dissolve in DMSO
- melting point: 250.3 to 255.1 °C
- MIC [13, 23]: ≥ 500 mg/L
- MIC [14, 23]: ≥ 500 mg/L
- MIC [19, 23]: ≥ 500 mg/L

Structure (SMILES): CCCCCCNc1cnc(C(=O)Nc2cc(Cl)ccc2O)cn1 [Compound 7d, N-(5-chloro-2-hydroxyphenyl)-5-(hexylamino)pyrazine-2-carboxamide]
- IC50 (HepG2 cells; [24]): > 25 µM
- Solubility problem in antibacterial/antifungal testing [22]: did not dissolve in DMSO
- melting point: 249.3 to 251.9 °C
- MIC [13, 23]: ≥ 500 mg/L
- MIC [14, 23]: ≥ 500 mg/L
- MIC [19, 23]: ≥ 500 mg/L

Structure (SMILES): CCCCCCCNc1cnc(C(=O)Nc2cc(Cl)ccc2O)cn1 [Compound 7e, N-(5-chloro-2-hydroxyphenyl)-5-(heptylamino)pyrazine-2-carboxamide]
- IC50 (HepG2 cells; [24]): > 10 µM
- Solubility problem in antibacterial/antifungal testing [22]: did not dissolve in DMSO
- melting point: 243.6 to 246 °C
- MIC [13]: 31.2 mg/L (≈ 86.1 µM)
- MIC [14]: ≥ 500 mg/L
- MIC [19]: ≥ 500 mg/L

Structure (SMILES): CCCCCCCCNc1cnc(C(=O)Nc2cc(Cl)ccc2O)cn1 [Compound 7f, N-(5-chloro-2-hydroxyphenyl)-5-(octylamino)pyrazine-2-carboxamide]
- IC50 (HepG2 cells; [24]): > 50 µM
- Solubility problem in antibacterial/antifungal testing [22]: did not dissolve in DMSO
- melting point: 239.7 to 242.4 °C
- MIC [13, 23]: 250 mg/L (≈ 663 µM)
- MIC [14, 23]: ≥ 500 mg/L
- MIC [19, 23]: ≥ 500 mg/L

Structure (SMILES): NNC(=O)c1ccncc1 [INH, isoniazid, reference compound]
- MIC ([9]; ATCC12478, Middlebrook 7H9 broth pH 6.6, read-out: MIC Mycobacterium kansasii): 25 mg/L (≈ 182 µM)
- MIC [13, 23]: 7.81 to 15.6 mg/L (≈ 56.9 to 114 µM)
- MIC [14, 23]: 3.91 to 7.81 mg/L (≈ 28.5 to 56.9 µM)
- MIC ([15]; ATCC15769, Middlebrook 7H9 broth pH 6.6, read-out: MIC Mycobacterium avium): 25 mg/L (≈ 182 µM)
- MIC [19, 23]: 0.125 to 0.25 mg/L
